# Read-outs that look alike come from different tables or passages of the source.
# Legend:
# [1] = test system: APP; experiment: Real-time quantitative PCR of APP mRNA in HT22 cells; assay type: cell-based; conditions: HT22 cells after HYP treatment
# Procedure: RNA was extracted from the HT22 cell using FavorPrep™ Blood/Cultured Cell Total RNA Purification Mini Kit (Favorgen Biotech Corp.). RNA concentration was determined using the NanoDrop 2000c Spectrophotometer (Thermo Scientific). 1 μg of total RNA was used to reverse transcribe to its corresponding cDNA by using the Transcriptor Universal cDNA Master mix (Roche, USA). Quantitative PCR was then performed with the addition of PowerUp™ SYBR® Green Master Mix (Applied Biosystems) using the ViiA™ 7 Real-Time PCR System (Applied Biosystems). Specific primers (Tech Dragon Ltd., Hong Kong) were designed by employing ThermoFisher Scientific's online OligoPerfect™ Designer software and then verified with NCBI's Primer‐BLAST software to confirm specific recognition of the target genes. Gene expression levels were normalized to actin (control) and analyzed using the ΔΔCT method. Three independent experiments with three replicates per group were analyzed for each primer.
# [2] = test system: HT22 cells; experiment: Cell membrane permeability assay (intracellular HYP by LC-MS/MS); assay type: in vitro ADME; conditions: HYP 20–80 μM, 24 h
# Procedure: HT22 cells were co-treated with Aβ aggregates and HYP (20–80 μM) for 24 h and washed with PBS for 3 times. The cell membrane was disrupted with 200 μL methanol for the collection and centrifugation of cellular content at 20,000 rpm for 10 min. The supernatant was then collected for LC-MS/MS analysis. HYP content was quantified using UHPLC-MS/MS system, which includes Agilent 1290 Infinity UHPLC, and Agilent 6460 Triple Quadrupole, equipped with an electrospray ionization interface used to generate positive ions for the determination of HYP. The compounds were analyzed by using the Agilent Zorbax Eclipse Plus C-18 column with a particle size of […] (flow rate: 0.35 mL/min). The mobile phase was set as follows: mobile phase A (0.1% formic acid in water) and mobile phase B (0.1% formic acid in ACN): 0–3 min, 10–30% B; 3–4 min, 70% B; 4–5 min, 30–70% B; 5–6 min, 70-10% B. The column and auto-sampler temperature were maintained at 30 °C and 4 °C, respectively. Data were analyzed by using Agilent MassHunter Workstation software B.01.03. The gas temperature was set at 300 °C with a flow rate of 11 L/min. Gases were set at 30 psi for the nebulizer, capillary, at 4000 V. For the HYP, the fragment was 170. The collision energy was set at 30; The mass transitions were as follows based on multiple reaction monitoring: m/z 464.38 → 299.9. For the Isorhamnetin (ISO), the fragment was 150. […]
# [3] = Pharmacokinetics in brain after IV or IN administration; assay type: in vivo; conditions: 20 mg/kg, mice; for Tmax / k el / half-life: mouse, brain; for k el: read-out: Brain Ke (converted); for half-life: read-out: Brain t1/2 (converted)
# Procedure: After tail vein injection or nasal administration, blood was collected at 5, 15 and 30 min, 1, 2, 4, 8, 12, 24, 48, 72, 120 and 168 h, for immediate centrifugation at 14,000 rpm for 5 min. The serum was harvested and stored at −20 °C until further processing. Brain tissue was collected and was thoroughly rinsed in saline to eliminate blood and blotted dry with filter paper. Each tissue sample was homogenized in saline (1:5, w/v) and stored at −20 °C until analysis. 50 μL of serum or 100 μL of brain tissue was put in a 1.5 mL EP tube, followed by the addition of 20 μL of internal standard solution (10 μM ISO). The protein was precipitated with 1 mL of ethyl acetate, vortexed for 5 min and centrifuged at 20,000 g (4 °C and 10 min). The supernatant solution was nitrogen blown to dry and re-suspended with 100 μL of 50% acetonitrile for centrifugation again. The supernatant was taken for analysis by using LC-MS/MS. HYP content was quantified using UHPLC-MS/MS system, which includes Agilent 1290 Infinity UHPLC, and Agilent 6460 Triple Quadrupole, equipped with an electrospray ionization interface used to generate positive ions for the determination of HYP. The compounds were analyzed by using the Agilent Zorbax Eclipse Plus C-18 column with a particle size of […] (flow rate: 0.35 mL/min). The mobile phase was set as follows: mobile phase A (0.1% formic acid in water) and mobile phase B (0.1% formic acid in ACN): 0–3 min, 10–30% B; 3–4 min, 70% B; 4–5 min, 30–70% B; 5–6 min, 70-10% B. The column and auto-sampler temperature were maintained at 30 °C and 4 °C, respectively. Data were analyzed by using Agilent MassHunter Workstation software B.01.03. The gas temperature was set at 300 °C with a flow rate of 11 L/min. Gases were set at 30 psi for the nebulizer, capillary, at 4000 V. For the HYP, the fragment was 170. The collision energy was set at 30; The mass transitions were as follows based on multiple reaction monitoring: m/z 464.38 → 299.9. For the Isorhamnetin (ISO), the fragment was 150. The collision energy was set at 30; The mass transitions were as follows based on multiple reaction monitoring: m/z 315.4 → 300.1, The measurements of HYP were done using the standard and linear least-squares regression curve.
# [4] = test system: HT22 cells; experiment: Cytotoxicity (MTT) assay; assay type: cell-based
# Procedure: Cytotoxicity was assessed using the MTT (5.0 mg/mL) assay. 4 × 10^3 HT22 cells per well were seeded in 96-well plates. After overnight incubation, cells were treated with Aβ aggregates (30 μM) for 48 h with or without the presence of HYP (20–80 μM). Cells were treated with DMSO as a control. Subsequently, MTT (10 μL) was added to each well for 4 h, followed by the addition of 100 μL of lysis buffer (10% SDS in 0.01 mol/L hydrochloric acid) and overnight incubation. The absorbance was measured at 570 nm the next day. The formula was calculated as a percentage of cell viability: Cell viability (%) = A (treatded) / A (control) × 100%. Data were obtained from three independent experiments in triplicate.
structure (smiles),measurement,setting,value
"O=c1c(O[C@@H]2O[C@H](CO)[C@H](O)[C@H](O)[C@H]2O)c(-c2ccc(O)c(O)c2)oc2cc(O)cc(O)c12 [HYP, Quercetin-3-O-β-D-galactopyranoside]",mRNA transcriptional level of APP,[1],no significant effect
same,intracellular level of HYP,[2],increased upon the escalating concentration of HYP
same,Brain Cmax,[3]; IN,12.76 ± 1.56 ng/m
same,Brain F (AUCIN/AUCIV ratio),[3]; IN,603.72%
same,Brain Cmax,[3]; IV,12.82 ± 0.40 ng/mL
same,Tmax,"[3]; inhaled or intranasal, IN",1 h
same,k el,"[3]; inhaled or intranasal, IN",5.56e-06 s⁻¹
same,half-life,"[3]; inhaled or intranasal, IN",70.1 ± 5.04 h
same,Tmax,[3]; IV,2 h
same,k el,[3]; IV,1.94e-05 s⁻¹
same,half-life,[3]; IV,10.5 ± 1.63 h
same,cellular toxicity of HYP alone (MTT),[4]; HYP 20–80 μM,no obvious cellular toxicity was observed
same,cell viability with aggregated Aβ co-treatment (MTT and flow cytometry),[4]; HYP 20–80 μM + aggregated Aβ 30 μM,increased the cell viability in a dose-dependent manner

# Source: paper PMC9975698, “Hyperoside alleviates toxicity of β-amyloid via endoplasmic reticulum-mitochondrial calcium signal transduction cascade in APP/PS1 double transgenic Alzheimer's disease mice” (Redox Biology, 2023)
